# Laboratory results from patent US20040214832A1, “Piperazine derivative renin inhibitors” (priority 2003, published 2004).
# Biological target: T1, human renin (Homo sapiens, UniProt P00797)
# T1 sequence (P00797 67-406): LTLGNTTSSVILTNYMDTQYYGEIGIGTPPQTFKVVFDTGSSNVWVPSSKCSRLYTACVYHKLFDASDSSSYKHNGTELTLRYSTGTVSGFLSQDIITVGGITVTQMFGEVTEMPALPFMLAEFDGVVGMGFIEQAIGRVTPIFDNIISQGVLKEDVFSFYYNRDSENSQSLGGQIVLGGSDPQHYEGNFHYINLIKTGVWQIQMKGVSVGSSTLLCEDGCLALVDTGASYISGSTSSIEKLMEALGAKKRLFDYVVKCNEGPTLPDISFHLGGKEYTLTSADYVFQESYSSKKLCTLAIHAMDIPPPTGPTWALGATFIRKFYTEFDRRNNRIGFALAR
# Assay: Determination of renin IC50 by tGFP FRET assay
# Type: biochemical
# Conditions: Human recombinant renin, tandem GFP substrate 650 nM, 60 min incubation with compound, pH 7.4, 11-point curve
# How it was run: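 Human recombinant renin (final 50.4 μIU) preincubated 60 min with compound (5% DMSO final) in 50 mM HEPES, 1 mM EDTA, 1% PEG 8000, 1 mM DTT, 0.1% BSA, pH 7.4, then tandem-GFP substrate added at 650 nM final. FRET fluorescence read; IC50 from 11-point curves spanning 100 μM–1 pM.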
row,IC50,Compound
1,13.1 µM,"COc1ccccc1COCCCOc1ccc(N2C(=O)CNC[C@@H]2COc2ccc3ccccc3n2)cc1 [Example 77, (6R)-1-{4-[3-(2-methoxybenzyloxy)-propoxy]-phenyl}-6-(quinolin-2-yloxymethyl)-piperazin-2-one]"
2,4.34 µM,"COc1ccc(COC[C@H]2CNCCN2c2ccc(OCCCOCc3cc(F)cc(F)c3)cc2)cc1 [Example 67, (2R)-1-{4-[3-(3,5-difluorobenzyloxy)-propoxy]-phenyl}-2-(4-methoxybenzyloxymethyl)-piperazine]"
3,0.822 µM,"COc1ccccc1COCCCOc1ccc(N2C(=O)CNC[C@@H]2COc2ccc3cccnc3c2)cc1 [Example 41, (6R)-1-{4-[3-(2-methoxybenzyloxy)-propoxy]-phenyl}-6-(quinolin-7-yloxymethyl)-piperazin-2-one]"
4,> 1 µM,"COc1ccccc1COCCCOc1ccc(N2C(=O)CNC[C@@H]2CNC(=O)c2ccc(Cl)cc2)cc1 [Example 83, 4-chloro-N-([2R]-1-{4-[3-(2-methoxybenzyloxy)-propoxy]-phenyl}-6-oxopiperazin-2-ylmethyl)-benzamide]"
5,> 1 µM,"COc1ccccc1COCCCOc1ccc(N2C(=O)CNC[C@@H]2COCc2c(F)cccc2F)cc1 [Example 16, (6R)-6-(2,6-difluorobenzyloxymethyl)-1-{4-[3-(2-methoxybenzyloxy)-propoxy]-phenyl}-piperazin-2-one]"
6,30.5 µM,"COc1ccc(COC[C@H]2CNCCN2c2ccc(COCCOCc3ccccc3OC)cc2)cc1 [Example 72, (2R)-1-{4-[2-(2-methoxybenzyloxy)-ethoxymethyl]-phenyl}-2-(4-methoxybenzyloxymethyl)-piperazine]"
7,0.00683 µM,"COC(=O)CN1C(=O)COc2ccc(OC[C@H]3CNCC(=O)N3c3ccc(OCCCOCc4ccccc4OC)cc3)cc21 [Example 118, [6-([2R]-1-{4-[3-(2-Methoxybenzyloxy)-propoxy]-phenyl}-6-oxo-piperazin-2-ylmethoxy)-3-oxo-2,3-dihydro-benzo[1,4]oxazin-4-yl]-acetic acid methyl ester]"
8,> 1 µM,"COc1ccccc1COCCCOc1ccc(N2C(=O)CNC[C@@H]2COC(=O)c2ccccc2)cc1 [Example 61, benzoic acid (2R)-1-{4-[3-(2-methoxybenzyloxy)-propoxy]-phenyl}-6-oxopiperazin-2-yl methyl ester]"
9,> 1 µM,"COc1ccccc1COCCCOc1ccc(N2C(=O)CNC[C@@H]2COCc2ccc(F)cc2C(F)(F)F)cc1 [Example 19, (6R)-6-(4-fluoro-2-trifluoromethylbenzyloxymethyl)-1-{4-[3-(2-methoxybenzyloxy)-propoxy]-phenyl}-piperazin-2-one]"
10,0.223 µM,"COc1ccccc1COCCCOc1ccc(N2C(=O)CNC[C@@H]2COCc2ccccc2Cl)cc1 [Example 14, (6R)-6-(2-chlorobenzyloxymethyl)-1-{4-[3-(2-methoxybenzyloxy)-propoxy]-phenyl}-piperazin-2-one]"
11,> 1 µM,"COc1ccccc1COCCCOc1ccc(N2C(=O)CNC[C@@H]2COc2ccc3ccccc3c2)cc1C(=O)O [Example 98, 2-[(5R)-3-(2-methoxybenzyloxy)-propoxy]-5-[2-(naphthalene-2-yloxymethyl)-6-oxopiperazin-1-yl]-benzoic acid]"
12,> 1 µM,"COc1ccccc1COCCCOc1ccc(N2C(=O)CNC[C@@H]2COCc2ccccn2)cc1 [Example 29, (6R)-1-{4-[3-(2-methoxybenzyloxy)-propoxy]-phenyl}-6-(pyridin-2-ylmethoxymethyl)-piperazin-2-one]"
13,4.05 µM,"COc1ccccc1COCCCOc1ccc(N2C(=O)CNC[C@@H]2COc2ccc(C(=O)N(C)C)cc2)cc1 [Example 95, 4-([2R]-1-{4-[3-(2-methoxybenzyloxy)-propoxy]-phenyl}-6-oxopiperazin-2-ylmethoxy)-N,N-dimethyl-benzamide]"
14,> 1 µM,"COc1ccccc1COCCCOc1ccc(N2C(=O)CNC[C@@H]2COCc2ccccc2C)cc1 [Example 21, (6R)-1-{4-[3-(2-methoxybenzyloxy)-propoxy]-phenyl}-6-(2-methylbenzyloxymethyl)-piperazin-2-one]"
15,60.2 µM,"COc1ccc(COC[C@H]2CNCCN2c2ccc(OCCCOCc3ccc(C)cc3)cc2)cc1 [Example 68, (2R)-2-(4-methoxybenzyloxymethyl)-1-{4-[3-(4-methylbenzyloxy)-propoxy]-phenyl}-piperazine]"
16,0.064 µM,"COc1ccccc1COCCCOc1ccc(N2C(=O)CNC[C@@H]2COc2ccc3c(c2)N(CCO)CCC3)cc1 [Example 57, (6R)-6-[1-(2-hydroxyethyl)-1,2,3,4-tetrahydroquinolin-7-yloxymethyl]-1-{4-[3-(2-methoxybenzyloxy)-propoxy]-phenyl}-piperazin-2-one]"

row,IC50,Compound
1,> 1 µM,"COc1ccccc1COCCCOc1ccc(N2C(=O)CNC[C@@H]2COCc2cccc(F)c2)cc1 [Example 18, (6R)-6-(3-fluorobenzyloxymethyl)-1-{4-[3-(2-methoxybenzyloxy)-propoxy]-phenyl}-piperazin-2-one]"
2,> 1 µM,"COc1ccc(COC[C@H]2CNCCN2c2ccc(OCc3ccccc3)cc2)cc1 [Example 36, (2R)-1-(4-benzyloxyphenyl)-2-(4-methoxybenzyloxymethyl)-piperazine]"
3,> 1 µM,"COc1ccccc1COCCCOc1ccc(N2C(=O)CNC[C@@H]2COc2ccc3ccccc3c2)cc1Cl [Example 100, (6R)-1-(3-chloro-4-[3-(2-methoxybenzyloxy)-propoxy]-phenyl)-6-(naphthalene-2-yloxymethyl)-piperazin-2-one]"
4,> 1 µM,"COc1ccccc1COCCCOc1ccc(N2C(=O)CNC[C@@H]2COc2ccc3c(c2)CCCN3C(C)=O)cc1 [Example 54, (6R)-6-(1-acetyl-1,2,3,4-tetrahydroquinolin-6-yloxymethyl)-1-{4-[3-(2-methoxybenzyloxy)-propoxy]-phenyl}-piperazin-2-one]"
5,0.0017 µM,"COCCCN1C(=O)CCc2ccc(OC[C@@H]3CNCC(=O)N3c3ccc(OCCCOCc4ccccc4OC)cc3)cc21 [Example 112, 7-([2S]-1-{4-[3-(2-Methoxybenzyloxy)-propoxy]-phenyl}-6-oxopiperazin-2-ylmethoxy)-1′-(3-methoxypropyl)-3,4-dihydro-1H-quinolin-2-one]"
6,0.00042 µM,"COc1ccccc1COCCCOc1ccc(N2C(=O)CNC[C@@H]2COc2ccc3c(c2)N(CCOC(C)=O)CCC3)cc1 [Example 31, acetic acid 2-[7-(1-{4-[3-(2-methoxybenzyloxy)-propoxy]-phenyl}-6-oxopiperazin-(2R)-ylmethoxy)-3,4-dihydro-2H-quinolin-1-yl]-ethyl ester]"
7,5.04 µM,"COc1ccc(COC[C@H]2CNCCN2c2ccc(OCCCOCc3cccc(Cl)c3)cc2)cc1 [Example 64, (2R)-1-{4-[3-(3-chlorobenzyloxy)-propoxy]-phenyl}-2-(4-methoxybenzyloxymethyl)-piperazine]"
8,> 1 µM,"COc1cccc(CCNC(=O)c2ccc(N3C(=O)CNC[C@@H]3COc3ccc4ccccc4c3)cc2)c1 [Example 50, N-[2-(3-methoxyphenyl)-ethyl]-4-[(2R)-2-(naphthalen-2-yloxymethyl)-6-oxopiperazin-1-yl]-benzamide]"
9,0.883 µM,"COc1ccccc1COCCCOc1c(F)cc(N2C(=O)CNC[C@@H]2COc2ccc3ccccc3c2)cc1F [Example 43, (6R)-1-{3,5-difluoro-4-[3-(2-methoxybenzyloxy)-propoxy]-phenyl}-6-(naphthalen-2-yloxymethyl)-piperazin-2-one]"
10,0.00018 µM,"COCCCN1C(=O)COc2ccc(SC[C@H]3CNCC(=O)N3c3ccc(OCCCOCc4ccccc4OC)cc3)cc21 [Example 128, 6-([2R]-1-{4-[3-(2-Methoxybenzyloxy)-propoxy]-phenyl}-6-oxo-piperazin-2-ylmethylsulfanyl)-4-(3-methoxypropyl)-4H-benzo[1,4]oxazin-3-one]"
11,> 1 µM,"COCc1ccc(N2CCNC[C@@H]2COc2ccc3ccccc3c2)cc1 [Example 99, (2R)-1-(4-methoxymethylphenyl)-2-(naphthalene-2-yloxymethyl)-piperazine]"
12,0.107 µM,"COc1ccccc1COCCCOc1ccc(N2C(=O)CNC[C@@H]2COCc2ccc(Cl)c(C(F)(F)F)c2)cc1 [Example 24, (6R)-6-(4-chloro-3-trifluoromethylbenzyloxymethyl)-1-{4-[3-(2-methoxybenzyloxy)-propoxy]-phenyl}-piperazin-2-one]"
13,43.7 µM,"COc1ccc(COC[C@H]2CNCCN2c2ccc(OCCCOCc3ccc(Cl)cc3)cc2)cc1 [Example 62, (2R)-1-{4-[3-(4-chlorobenzyloxy)-propoxy]-phenyl}-2-(4-methoxybenzyloxymethyl)-piperazine]"
14,> 1 µM,"COc1ccccc1COCCCOc1ccc(N2C(=O)CNC[C@@H]2CNC(=O)c2ccccc2OC)cc1 [Example 82, 2-methoxy-N-([2R]-1-{4-[3-(2-methoxybenzyloxy)-propoxy]-phenyl}-6-oxopiperazin-2-ylmethyl)-benzamide]"
15,0.00391 µM,"COCCCN1C(=O)CCc2ccc(OC[C@H]3CNCC(=O)N3c3ccc(OCCCOCc4ccccc4OC)cc3)cc21 [Example 111, 7-([2R]-1-{4-[3-(2-Methoxybenzyloxy)-propoxy]-phenyl}-6-oxopiperazin-2-ylmethoxy)-1-(3-methoxypropyl)-3,4-dihydro-1H-quinolin-2-one]"

row,Compound,IC50
1,"COc1ccccc1OCCCCOc1ccc(N2C(=O)CNC[C@@H]2COc2ccc3ccccc3c2)cc1 [Example 73, (6R)-1-{4-[4-(2-methoxyphenoxy)-butoxy]-phenyl}-6-(naphthalen-2-yloxymethyl)-piperazin-2-one]",1.73 µM
